Assay results: patent publication US6596687B1, “Cell adhesion inhibitors” (Biogen, Inc., priority 1995, dated 2003)
Numbered stars: 1 amine (or outer) side, 2 acyl side, 3 side chain; on linkers, the order of the positions; unused ones are H or OH. Square brackets hold non-standard residues; d marks the D form. Peptide text beside a SMILES is read from it. * marks the point of attachment. X2 = O=C(Cc1ccc(N[*:1])cc1)[*:2]; PhAc = O=C(Cc1ccccc1)*; CO = O=C([*:1])[*:2]; Bz = O=C(c1ccccc1)*; NHPh = c1ccc(N*)cc1; Bn = c1ccc(C*)cc1; NHBu = CCCCN*

Target: T1, VLA4 (Homo sapiens, UniProt P05556+P13612)
T1 construct: endogenous in cells; host or cells: Ramos cells
T1 sequence (P13612 34-1032): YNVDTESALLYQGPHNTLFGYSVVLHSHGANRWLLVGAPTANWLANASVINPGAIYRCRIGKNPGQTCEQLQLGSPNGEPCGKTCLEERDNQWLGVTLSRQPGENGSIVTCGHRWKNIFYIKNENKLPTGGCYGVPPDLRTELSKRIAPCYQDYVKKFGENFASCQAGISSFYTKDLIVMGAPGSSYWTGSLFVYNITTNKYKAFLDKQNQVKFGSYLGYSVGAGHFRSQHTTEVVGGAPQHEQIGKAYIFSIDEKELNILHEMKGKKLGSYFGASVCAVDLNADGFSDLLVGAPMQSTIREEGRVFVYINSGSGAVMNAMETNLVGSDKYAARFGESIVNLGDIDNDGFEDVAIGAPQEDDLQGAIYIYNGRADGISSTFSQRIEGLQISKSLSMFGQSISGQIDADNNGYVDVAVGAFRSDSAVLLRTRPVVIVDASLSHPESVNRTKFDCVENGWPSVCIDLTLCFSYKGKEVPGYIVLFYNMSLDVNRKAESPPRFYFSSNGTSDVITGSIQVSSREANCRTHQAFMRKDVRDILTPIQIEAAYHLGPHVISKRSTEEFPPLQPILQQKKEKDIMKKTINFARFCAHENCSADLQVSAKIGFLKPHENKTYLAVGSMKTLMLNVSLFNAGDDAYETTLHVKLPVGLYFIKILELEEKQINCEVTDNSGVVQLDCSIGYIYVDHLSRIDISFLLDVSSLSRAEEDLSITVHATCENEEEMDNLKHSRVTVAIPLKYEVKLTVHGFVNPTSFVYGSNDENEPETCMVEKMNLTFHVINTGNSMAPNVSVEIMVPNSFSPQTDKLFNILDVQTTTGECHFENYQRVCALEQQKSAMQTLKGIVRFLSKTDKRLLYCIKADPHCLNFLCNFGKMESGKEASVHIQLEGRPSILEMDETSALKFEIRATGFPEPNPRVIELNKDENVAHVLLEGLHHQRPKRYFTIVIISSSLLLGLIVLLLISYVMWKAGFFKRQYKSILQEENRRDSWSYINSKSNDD
T1 sequence (P05556 21-798): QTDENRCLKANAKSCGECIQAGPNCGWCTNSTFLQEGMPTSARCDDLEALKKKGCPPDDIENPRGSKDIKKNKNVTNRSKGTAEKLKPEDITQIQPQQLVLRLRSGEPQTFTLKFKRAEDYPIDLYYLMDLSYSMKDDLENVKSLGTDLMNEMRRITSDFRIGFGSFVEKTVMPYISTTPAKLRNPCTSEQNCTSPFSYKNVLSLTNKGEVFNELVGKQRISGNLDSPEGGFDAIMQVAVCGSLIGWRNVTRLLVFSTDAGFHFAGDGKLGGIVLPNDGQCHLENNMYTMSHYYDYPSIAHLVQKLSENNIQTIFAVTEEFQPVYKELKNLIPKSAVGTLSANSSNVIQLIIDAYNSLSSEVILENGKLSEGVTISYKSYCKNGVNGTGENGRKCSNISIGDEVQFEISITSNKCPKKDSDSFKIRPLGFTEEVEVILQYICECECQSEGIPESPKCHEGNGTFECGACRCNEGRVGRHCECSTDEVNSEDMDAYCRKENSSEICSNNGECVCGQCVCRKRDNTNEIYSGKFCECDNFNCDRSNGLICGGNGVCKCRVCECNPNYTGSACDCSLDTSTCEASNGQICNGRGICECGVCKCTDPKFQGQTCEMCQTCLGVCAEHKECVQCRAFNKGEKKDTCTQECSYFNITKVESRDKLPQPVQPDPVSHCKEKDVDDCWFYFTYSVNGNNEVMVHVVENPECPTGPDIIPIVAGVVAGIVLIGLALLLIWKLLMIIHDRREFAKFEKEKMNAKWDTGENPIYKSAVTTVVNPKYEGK
Test: Inhibition of VLA4-dependent adhesion of Ramos cells to BSA-CS1
Type: cell-based
Conditions: Ramos cells, BSA-CS1 coated wells, 2 mM MnCl2, 30 minutes at room temperature; read-out: IC50
How it was run: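 BCECF-AM-labelled Ramos cells in Tris buffer pH 7.4 with 2 mM MnCl2 were added with compound to wells coated with BSA-conjugated Cys-Tyr-CS1 peptide (1 μg/mL). Cells and compound were incubated for 30 min at room temperature, in triplicate. Inhibition was quantified from bound fluorescence against no-compound controls, with uncoated wells used for nonspecific binding.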

IC50	SMILES
> 10 µM	CC(C)CNC(=O)[C@H](CC(=O)O)NC(=O)[C@H](CC(C)C)NC(=O)CCCc1ccccc1 [Compound 161]
> 10 µM	CC(C)CNC(=O)[C@H](CC(=O)O)NC(=O)[C@H](CC(C)C)NC(=O)CCc1ccccc1 [Compound 162]
> 10 µM	CC(C)CNC(=O)[C@H](CC(=O)O)NC(=O)[C@H](CC(C)C)NC(=O)CNC(=O)c1ccccc1 [Compound 163]
0.05 to 10 µM	CNC(=O)[C@@H](NC(=O)[C@H](CC(=O)O)NC(=O)[C@H](CC(C)C)NC(=O)c1ccc2ccccc2n1)C(C)C [Compound 164]
> 10 µM	COc1ccc(C(=O)N[C@@H](CC(C)C)C(=O)N[C@@H](CC(=O)O)C(=O)NCC(C)C)cc1 [Compound 165]
> 10 µM	COC(=O)[C@@H](NC(=O)[C@H](CC(=O)O)NC(=O)[C@H](CC(C)C)NC(=O)CCCc1ccccc1)C(C)C [Compound 166]
0.05 to 10 µM	COC(=O)[C@H](CCSC)NC(=O)[C@@H](NC(=O)[C@H](CC(=O)O)NC(=O)[C@H](CC(C)C)NC(=O)c1ccc2ccccc2n1)C(C)C [Compound 168] (HELM PEPTIDE1{[O=C(c1ccc2ccccc2n1)[*:2]].L.D.V.M.[CO[*:1]]}$$$$V2.0)
> 10 µM	COC(=O)[C@@H](NC(=O)[C@H](CC(=O)O)NC(=O)[C@H](CC(C)C)NC(=O)c1ccc2ccccc2n1)[C@@H](C)O [Compound 170]
> 10 µM	CC(C)CNC(=O)[C@H](CC(=O)O)NC(=O)[C@H](CC(C)C)NC(=O)NC(C)(C)C [Compound 171]
0.05 to 10 µM	CC(C)C[C@H](NC(=O)c1ccc2ccccc2n1)C(=O)N[C@@H](CC(=O)O)C(=O)NC(CO)C(C)C (stereo partly shown) [Compound 174]
0.05 to 10 µM	CC(C)C[C@H](NC(=O)c1ccc2ccccc2n1)C(=O)N[C@@H](CC(=O)O)C(=O)N[C@H](C(=O)N1CCOCC1)C(C)C [Compound 175]
> 10 µM	COC(=O)[C@@H](NC(=O)[C@H](CC(=O)O)NC(=O)[C@H](CC(C)C)NC(=O)Cc1ccc(OC)cc1)[C@@H](C)O [Compound 176]
> 10 µM	COC(=O)[C@@H](NC(=O)[C@H](CC(=O)O)NC(=O)[C@H](CC(C)C)NS(=O)(=O)c1ccc(OC)cc1)[C@@H](C)O [Compound 177]
> 10 µM	CNC(=O)[C@@H](NC(=O)[C@H](CC(=O)O)NC(=O)[C@H](CC(C)C)N(C)C(=O)c1ccc2ccccc2n1)C(C)C [Compound 179]
0.05 to 10 µM	CNC(=O)[C@@H](NC(=O)[C@H](CC(=O)O)NC(=O)[C@H](CC(C)C)N(C)C(=O)Cc1ccccc1)C(C)C [Compound 180] (HELM PEPTIDE1{[O=C(Cc1ccccc1)[*:2]].[meL].D.V.[CN[*:1]]}$$$$V2.0)
> 10 µM	CNC(=O)[C@@H](NC(=O)[C@H](CC(=O)O)NC(=O)[C@H](CC(C)C)NC(=O)Cc1ccccc1)C(C)C [Compound 181] (HELM PEPTIDE1{[O=C(Cc1ccccc1)[*:2]].L.D.V.[CN[*:1]]}$$$$V2.0)
> 10 µM	CNC(=O)[C@@H](NC(=O)[C@H](CC(=O)O)NC(=O)[C@H](CC(C)C)NC(=O)Nc1ccccc1)C(C)C [Compound 187] ({NHPh-CO}-Leu-Asp-Val-NHMe)
> 10 µM	CNC(=O)[C@@H](NC(=O)[C@H](CC(=O)O)NC(=O)[C@H](CC(C)C)N(C)C(=O)Cc1ccc(O)cc1)C(C)C [Compound 188]
> 10 µM	CNC(=O)[C@@H](NC(=O)[C@H](CC(=O)O)NC(=O)[C@H](CC(C)C)NS(=O)(=O)c1ccccc1)C(C)C [Compound 189]
> 10 µM	COC(=O)[C@@H](NC(=O)[C@H](CC(=O)O)NC(=O)[C@H](CC(C)C)NC(=O)Cc1ccccc1)[C@@H](C)OC [Compound 190] (PhAc-Leu-Asp-Thr(Me)-OMe)
> 10 µM	COC(=O)[C@@H](NC(=O)[C@H](CC(=O)O)NC(=O)[C@H](CC(C)C)NC(=O)Cc1ccccc1)[C@@H](C)O [Compound 191] (HELM PEPTIDE1{[O=C(Cc1ccccc1)[*:2]].L.D.T.[CO[*:1]]}$$$$V2.0)
> 10 µM	COC(=O)[C@@H](NC(=O)[C@H](CC(=O)O)NC(=O)[C@H](CC(C)C)NC(=O)Cc1ccccc1)[C@@H](C)OC(C)=O [Compound 193] (PhAc-Leu-Asp-Thr(Ac)-OMe)
> 10 µM	CCCCOC(=O)[C@@H](NC(=O)[C@H](CC(=O)O)NC(=O)[C@H](CC(C)C)NC(=O)c1ccc2ccccc2n1)[C@@H](C)O [Compound 195]
> 10 µM	CCCCOC(=O)[C@@H](NC(=O)[C@H](CC(=O)O)NC(=O)[C@H](CC(C)C)NC(=O)Cc1ccccc1)C(C)C [Compound 196]
0.05 to 10 µM	COc1ccc(CNC(=O)[C@@H](NC(=O)[C@H](CC(=O)O)NC(=O)[C@H](CC(C)C)NC(=O)c2ccc3ccccc3n2)[C@@H](C)O)cc1 [Compound 197]
> 10 µM	CC(C)C[C@H](NC(=O)c1ccc2ccccc2n1)C(=O)N[C@@H](CC(=O)O)C(=O)NCCC(C)(C)C [Compound 198]
0.05 to 10 µM	CC(C)CNC(=O)[C@@H](NC(=O)[C@H](CC(=O)O)NC(=O)[C@H](CC(C)C)NC(=O)Cc1ccc(NC(=O)Nc2ccccc2)cc1)C(C)C [Compound 205]
0.05 to 10 µM	CC(C)CNC(=O)[C@H](CC(=O)O)NC(=O)[C@H](CC(C)C)NC(=O)Cc1ccc(NC(=O)Nc2ccccc2)cc1 [Compound 217]

Continued, compound first:

SMILES	IC50
COC(=O)[C@H](CCSC)NC(=O)[C@@H](NC(=O)[C@H](CC(=O)O)NC(=O)[C@H](CC(C)C)NC(=O)OC(C)(C)C)C(C)C [Compound 167] (HELM PEPTIDE1{[CC(C)(C)OC(=O)[*:2]].L.D.V.M.[CO[*:1]]}$$$$V2.0)	> 10 µM
CCCCNC(=O)N[C@@H](CC(=O)O)C(=O)N[C@H](C(=O)OC)C(C)C [Compound 169] ({NHBu-CO}-Asp-Val-OMe)	> 10 µM
COC(=O)[C@@H](NC(=O)[C@H](CC(=O)O)NC(=O)CNC(=O)c1ccccc1)C(C)C [Compound 172] (HELM PEPTIDE1{[O=C(c1ccccc1)[*:2]].G.D.V.[CO[*:1]]}$$$$V2.0)	> 10 µM
COC(=O)C[C@H](NC(=O)CNC(=O)c1ccccc1)C(=O)N[C@H](C(=O)OC)C(C)C [Compound 173] (Bz-Gly-Asp(OMe)-Val-OMe)	> 10 µM
CNC(=O)[C@@H](NC(=O)[C@H](CC(=O)O)NC(=O)[C@H](CC(C)C)N(C)C(=O)CCc1ccccc1)C(C)C [Compound 182] (HELM PEPTIDE1{[O=C(CCc1ccccc1)[*:2]].[meL].D.V.[CN[*:1]]}$$$$V2.0)	> 10 µM
CNC(=O)[C@@H](NC(=O)[C@H](CC(=O)O)NC(=O)[C@H](CCSC)NC(=O)Cc1ccccc1)C(C)C [Compound 183] (HELM PEPTIDE1{[O=C(Cc1ccccc1)[*:2]].M.D.V.[CN[*:1]]}$$$$V2.0)	> 10 µM
COC(=O)[C@@H](NC(=O)[C@H](CC(=O)O)NC(=O)[C@H](CC(C)C)NC(=O)Cc1ccccc1)[C@@H](C)OCc1ccccc1 [Compound 192] (PhAc-Leu-Asp-Thr(Bn)-OMe)	0.05 to 10 µM
CC(C)C[C@H](NC(=O)Cc1ccc(NC(=O)Nc2ccccc2)cc1)C(=O)N[C@@H](CC(=O)O)C(=O)N[C@H](C(=O)N1CCC[C@H]1C(N)=O)C(C)C [Compound 201] ({NHPh-CO}-[X2]LDVP-NH2)	0.05 to 10 µM
CC(C)C[C@H](NC(=O)Cc1ccc(NC(=O)Nc2ccccc2)cc1)C(=O)N[C@@H](CC(=O)O)C(=O)N[C@H](C(=O)O)C(C)C [Compound 203]	< 0.05 µM
CNC(=O)[C@@H](NC(=O)[C@H](CC(=O)O)NC(=O)[C@H](CC(C)C)NC(=O)Cc1ccc(NC(=O)Nc2ccccc2)cc1)C(C)C [Compound 204]	0.05 to 10 µM
CC[C@H](C)[C@H](NC(=O)Cc1ccc(NC(=O)Nc2ccccc2)cc1)C(=O)N[C@@H](CC(=O)O)C(=O)N[C@H](C(=O)N1CCC[C@H]1C(N)=O)C(C)C [Compound 209] ({NHPh-CO}-[X2]IDVP-NH2)	0.05 to 10 µM
CC(C)CC(NC(=O)Cc1ccc(NC(=O)Nc2ccccc2)cc1)C(=O)NC(CC(=O)O)C(=O)NC(C(=O)N1CCCC1C(N)=O)C(C)C (stereo not shown) [Compound 211] ({NHPh-CO}-[X2]LDVP-NH2; configuration not given here)	0.05 to 10 µM
CC(C)C[C@H](NC(=O)Cc1ccc(NC(=O)Nc2ccccc2)cc1)C(=O)N[C@@H](CC(=O)O)C(=O)NCc1ccccc1 [Compound 213]	0.05 to 10 µM
CC(C)C[C@H](NC(=O)Cc1ccc(NC(=O)Nc2ccccc2)cc1)C(=O)N[C@@H](CC(=O)O)C(=O)N1CCOCC1 [Compound 214]	0.05 to 10 µM
CC(C)C[C@H](NC(=O)Cc1ccc(NC(=O)Nc2ccccc2)cc1)C(=O)N[C@@H](CC(=O)O)C(=O)NC(C)C [Compound 215]	0.05 to 10 µM
CC(C)CC(NC(=O)Cc1ccc(NC(=O)Nc2ccccc2)cc1)C(=O)NC(CC(=O)O)C(=O)NC1CCCCC1 (stereo not shown) [Compound 216]	0.05 to 10 µM
CC(C)C[C@H](NC(=O)Cc1ccc(NC(=O)Nc2ccccc2)cc1)C(=O)N[C@@H](CC(=O)O)C(=O)N1CCCCC1 [Compound 218]	0.05 to 10 µM
CSCC[C@H](NC(=O)Cc1ccc(NC(=O)Nc2ccccc2C)cc1)C(=O)N[C@@H](CC(=O)O)C(=O)N[C@H](C(N)=O)C(C)C [Compound 221]	< 0.05 µM
CSCC[C@H](NC(=O)[C@H](CC(=O)O)NC(=O)[C@H](CCSC)NC(=O)Cc1ccc(NC(=O)Nc2ccccc2C)cc1)C(N)=O [Compound 225]	< 0.05 µM
Cc1ccccc1NC(=O)Nc1ccc(CC(=O)N[C@@H](CC(C)C)C(=O)N[C@@H](CC(=O)O)C(=O)N[C@H](C(N)=O)[C@@H](C)O)cc1 [Compound 235]	< 0.05 µM
Cc1ccccc1NC(=O)Nc1ccc(CC(=O)N[C@@H](CC(C)C)C(=O)N[C@@H](CC(=O)O)C(=O)N[C@@H](Cc2c[nH]c3ccccc23)C(N)=O)cc1 [Compound 239]	< 0.05 µM
CC[C@H](C)[C@H](NC(=O)[C@H](CC(=O)O)NC(=O)[C@@H]1CCCN1C(=O)Cc1ccc(NC(=O)Nc2ccccc2C)cc1)C(N)=O [Compound 244]	< 0.05 µM
CSCC[C@H](NC(=O)[C@H](CC(=O)O)NC(=O)[C@@H]1CCCN1C(=O)Cc1ccc(NC(=O)Nc2ccccc2C)cc1)C(N)=O [Compound 247]	< 0.05 µM
Cc1ccccc1NC(=O)Nc1ccc(CC(=O)N[C@H](C(=O)N[C@@H](CC(=O)O)C(=O)N[C@@H](CC(=O)O)C(N)=O)[C@@H](C)O)cc1 [Compound 252]	< 0.05 µM
